Read-outs that look alike come from different tables or passages of the source. Values belong to the compound of their own block, whether it stands above or below them.
Columns and labels:
[1] = biological target: T1, PDEδ (Homo sapiens, UniProt O43924); experiment: Fluorescence polarization, direct binding of probe 10; conditions: 10 nM probe 10, titration of PDEδ
T1 construct: GST (N); made in house; host or cells: E. coli Rosetta 2
Description: RHOGDI1 displaced liposome -bound RAC1 from the surface of L1 chip with a koff of 0.016 […]
bound RAC1. Calculated rate constants by mono-exponential fitting of RU decays were 0.02 and 0.032 s-1 for RHOGDI1-mediated RAC1 displacement from the liposomes in the presence of 7a and 7d, respectively. (d) Competition-based fluorescence polarization experiments were performed by titration of 7a against 10 nM fluorescein-labelled atorvastatin and GST-PDEδ.
(e) Fluorescence polarization experiment using 10 nM probe 10 and titration of PDEδ.
(§1) (1 picture or pasted object on this page, not shown here)
Label-free quantification (LFQ) intensities were logarithmized (log2) and proteins, which were not three times quantified in at least one of the groups, were filtered off. […]
(§2) Fluorescence polarization
The binding of probe 10 to RHOGDI1-3 was confirmed by fluorescence polarization experiments. […] The change in fluorescence polarization was monitored at an excitation / emission wavelengths of 535 nm and 593 nm, respectively. […]
To determine the effect of 7a on the binding of RHOGDI1 to non-prenylated RAC1-GDP, fluorescence polarization measurements were performed by titrating 1 µM TAMRA-GDP-bound RAC1 with increasing concentrations of RHOGDI1 in the presence and absence of 50 µM 7a in buffer containing 30 mM Tris-HCl, pH 7.5, 150 mM NaCl, 5 mM MgCl2, 1% DMSO. […]

[2] = biological target: T2, RHOGDI3 (Homo sapiens, UniProt Q99819); experiment: Fluorescence polarization binding of probe 10
T2 construct: GST; made in house; host or cells: E. coli (XL1-Blue / BL21)
Description: as §2
(§3) The binding of probe 10 to RHOGDI1-3 was confirmed by fluorescence polarization experiments. RHOGDI1 was titrated against 0.5 µM of the fluorescent Rhonin derivative 10 in buffer containing 20 mM Hepes, pH 7.4, 150 mM NaCl, 5 mM MgCl2, 3 mM DTT and incubated for 1 h. The change in fluorescence polarization was monitored at an excitation / emission wavelengths of 535 nm and 593 nm, respectively. […]
(§4) Protein expression and purification
(§5) RHOGDI1 delta15, RHOGDI1 delta25, RHOGDI1-3 were produced in E. coli (XL1-Blue) as a GST recombinant protein as described previously.[9] In summary, protein were expressed in E.coli BL21 upon addition of IPTG overnight. Cell were collected and lysed in a lysis buffer, containing 30 mM Tris-NaOH pH 7.4, 150 mM NaCl, 1 mM DTT, and 5 mM MgCl2. Cells were further lysed using sonication. After centrifugation (20 min at 20,000 g) of lysate, the clear supernatant was used for purification in an ÄKTAprime system connected to a GSH column […]
(§6) Insect cell purification system was used for expression and purification of prenylated proteins based on an established protocol.[9] Sf9/or TNAO38 insect cells (Sf9 used only for virus generation and amplification) were grown to the level of 1.5×10^6 cells/ml before they were transduced with Baculoviruses encoding genes related to the RHO GTPases. Cells were resuspended in lysis buffer, containing 20 mM HEPES-NaOH pH 7.4, 150 mM NaCl, 2 mM β-mercaptoethanol, 5 mM MgCl2, 0.1 mM GDP, 10 mM imidazole and the optimized detergents including 1% CHAPS and 0.5% sodium cholate .[9] Cells were lysed by s onication in ice. After

[3] = biological target: T3, RHOGDI1 (Homo sapiens, UniProt P52565); experiment: Fluorescence polarization binding of probe 10; conditions: fluorescence polarization; read-out: KD (RHOGDI1Δ15)
T3 construct: GST; made in house; host or cells: E. coli (XL1-Blue / BL21)
Description: as §2, §3, §4, §5, §6
T3 sequence (P52565 16-204): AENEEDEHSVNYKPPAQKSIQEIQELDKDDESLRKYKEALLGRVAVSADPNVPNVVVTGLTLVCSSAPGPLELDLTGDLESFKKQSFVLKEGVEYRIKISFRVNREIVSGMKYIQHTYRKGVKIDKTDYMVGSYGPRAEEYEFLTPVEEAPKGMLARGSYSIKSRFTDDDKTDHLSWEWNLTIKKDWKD

[4] = biological target: T4, RHOGDI2 (Homo sapiens, UniProt P52566); experiment: Fluorescence polarization binding of probe 10
T4 construct: GST; made in house; host or cells: E. coli (XL1-Blue / BL21)
Description: as §2, §3, §4, §5, §6

[5] = biological target: T5, RHOGDI1 (Homo sapiens, UniProt P52565); experiment: Fluorescence polarization binding of probe 10; conditions: fluorescence polarization; read-out: KD (RHOGDI1Δ25)
T5 construct: GST; made in house; host or cells: E. coli (XL1-Blue / BL21)
Description: as §2, §3, §4, §5, §6
T5 sequence (P52565 26-204): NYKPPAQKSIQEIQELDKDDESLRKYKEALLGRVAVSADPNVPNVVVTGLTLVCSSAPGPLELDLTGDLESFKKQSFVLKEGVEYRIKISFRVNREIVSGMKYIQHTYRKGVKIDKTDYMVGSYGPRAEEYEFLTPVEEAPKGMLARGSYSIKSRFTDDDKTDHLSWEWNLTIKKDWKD

[6] = biological target: RHOGDI1 (Homo sapiens, UniProt P52565); experiment: Fluorescence polarization binding of probe 10; conditions: range from Figure 4e; read-out: KD, measured affinity between probe 10 and RHOGDI1
Description: as §2, §3, §4, §5, §6
Target sequence in this assay (P52565 2-204): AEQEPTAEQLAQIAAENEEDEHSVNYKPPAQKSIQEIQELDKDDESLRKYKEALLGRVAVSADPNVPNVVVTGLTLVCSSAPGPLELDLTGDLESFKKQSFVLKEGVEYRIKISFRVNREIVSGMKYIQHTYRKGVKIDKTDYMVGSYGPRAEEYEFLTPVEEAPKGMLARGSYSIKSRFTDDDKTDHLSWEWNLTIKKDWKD

[7] = system: NIH/3T3 lysate proteins; experiment: Affinity chromatography (pulldown) with immobilized probes, HRMS label-free quantification and immunoblotting; assay type: binding
Description: (§7) Supplementary Table S8. List of proteins enriched by the active probe 8 as identified by means of affinity chromatography. […]
(§8) on NHS ester magnetic beads. NIH/3T3 lysate was passed on to the probes and target protein identification was performed employing HRMS analysis as described in the methods section.
(§9) The ratios indicate the fold excess of protein enriched with the active probe 8 as compared to […]
(§10) Apart from filamin –B and –C and RHOGDI1, all enriched proteins were known frequent binders in pulldown assays.
(§11) Protein name Gene symbol Ratio
(§12) RHO GDP-dissociation inhibitor 1 Arhgdia 33
(§13) Guanine nucleotide -binding protein subunit beta -2-like
(§14) 1;Guanine nucleotide -binding protein subunit beta -2-like 1, N- Gnb2l1 6 […]
(§15) ATPase inhibitor, mitochondrial Atpif1 4
(§16) Hsc70-interacting protein St13 4
(§17) Tropomyosin alpha -4 chain Tpm4 4
(§18) Ribosome-recycling factor, mitochondrial Mrrf 3
(§19) (1 picture or pasted object on this page, not shown here) […]
(§20) intensities was performed by densitometry of scanned signals with the aid of image studio software (Version 4.0.21, LI-COR Biosciences, ©2014). […]
(§21) Cell lysate preparation for chemical proteomics
(§22) NIH/3T3 cells were grown to 90-95% confluence and were then detached using cell dissociation solution for 5 min at 37 °C and 5% CO2. Cells were suspended in cell culture medium and pelleted by centrifugation at 250 x g, 5 min at 4 °C. Cell pellets were then washed thrice with ice-cold PBS and lysed in lysis buffer containing 50 mM PIPES, 50 mM NaCl, 5 mM MgCl2, 5 mM EGTA, 0.1 % NP40, 0.1 % Triton X-100, 0.1 % Tween®20, with freshly added 1 mM DTT, EDTA-free protease inhibitors (Complete EDTA-free, Roche) and phosphatase inhibitors (PhosphoSTOP, Roche). To assure complete cell lysis, the suspension was passed through […] cannula 10 times each and incubated on ice for 40 min with intermittent vortexing every five minutes until a homogeneous mixture was obtained.
(§23) The resulting homogenate was centrifuged at 18,000 x g for 30 min at 4 °C and the supernatant was subsequently snap frozen in liquid nitrogen and stored at -80 °C. Total protein content was determined by DC protein assay (Bio-Rad, Germany).
(§24) Affinity chromatography enrichment of compound-bound proteins
(§25) 25 µL N-hydroxysuccinimide magnetic beads (GE Healthcare) were activated with 500 µL 1 mM HCl for 1 min. HCl was replaced by 500 µL coupling buffer (0.15 M triethanolamine, […]
(§26) incubated for 2 h at room temperature with overhead rotation. The residual active groups of N-hydroxysuccinimide magnetic were quenched by alternating incubation with 500 µL block A buffer (0.5 M ethanolamine, 0.5 M NaCl, pH 8.3) and block B buffer (0.1 M sodium acetate, 0.5 M NaCl, pH 4.0) for 5 min three times each. For protein binding, the magnetic beads were equilibrated with 500 µL lysis buffer followed by incubation with 500 µL lysate (protein concentration: 2 mg/mL) 2 h at 4 °C with overhead rotation. In order to wash out non-specifically bound proteins, the beads were first washed with 500 µL lysis buffer containing 25 mM MgCl2 followed by three times washing with 500 µL PBS. Tryptic digestion of bead-bound proteins was carried out in two stages. First, bound proteins were reduced by incubating the beads with 50 µL reducing buffer (1 mM DTT, 8 M urea in 50 mM Tris (pH 7.5)) at 30 °C for 30 min with shaking. Later, the reduced proteins were alkylated by addition of 5.5 µL alkylating solution (1 mM DTT, 50 mM chloroacetamide, 8 M urea in 50 mM Tris pH 7.5) and further incubation in the dark at 30 °C for 30 min while shaking at 350 rpm. The reduced and alkylated proteins were digested by adding 1 µg LysC at 37 °C for 1 h while shaking at 350 rpm. The supernatant was transferred to a new tube and the beads were further incubated with 50 mM Tris-HCl (pH 7.5) containing 1 µg trypsin at 37 °C for 1 h while shaking at 350 rpm.
(§27) Both supernatants were combined together and further digested by adding 2 µg trypsin for 16 h at 37 °C with continuous shaking. The enzymatic digestion was stopped by addition of 2 µL […]

[8] = biological target: T6, NIH/3T3 lysate proteins (Mus musculus, UniProt Q99PT1); experiment: as above; assay type: binding; conditions: fold excess enriched with active probe 8 vs inactive probe 9
T6 construct: endogenous in cells; host or cells: NIH/3T3
Description: as §7, §8, §9, §10, §11, §12, §13, §14, §15, §16, §17, §18, §19, §20, §21, §22, §23, §24, §25, §26, §27

[9] = system: C3H10T1/2 cells; experiment: Osteoblast differentiation in presence of low or high SAG; assay type: cell-based, mouse; conditions: low and high concentration of SMO agonist SAG
Description: cilia were stained with an antibody against acetylated tubulin. SMO was marked with an anti-SMO antibody and DAPI was used to stain the nuclei. For quantification of cilia, at least 100 cilia per condition and biological replicate were analyzed for the intensity of anti-acetylated tubulin antibody staining. The results of one representative biological replicate are shown and each data point represents the intensity value of one single cilium. Statistical significance was evaluated using an unpaired t-test with a confidence interval of 95 % (p ≤ n.s.). (d and e) Influence Vismodegib (d) or GANT61 (e) on osteoblast diffe rentation of C3H10T1/2 cells in presence of low (0.1 µM) or high (1 µM) concentration of the SMO agonist SAG. Data are mean values of three independent biological replicates (n= 3) ± SD. (f) Fluorescent polarization measurements were performed by titrating 1 μM TAMRA-GDP-bound RAC1 with increasing […]
µM Rhonin. Data are mean values (n = 3) ± SD. (g) Structure of the lysine-reactive probe […]
as §1

[10] = fold excess enriched with active probe 8 vs inactive probe 9

T2 sequence (Q99819 whole entry, species assumed): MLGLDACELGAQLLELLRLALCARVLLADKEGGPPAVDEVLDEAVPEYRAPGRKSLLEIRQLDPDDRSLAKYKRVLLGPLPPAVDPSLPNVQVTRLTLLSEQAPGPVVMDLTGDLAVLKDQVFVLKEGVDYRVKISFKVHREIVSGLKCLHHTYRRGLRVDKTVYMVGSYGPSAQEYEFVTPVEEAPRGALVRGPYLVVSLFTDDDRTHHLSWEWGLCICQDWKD
T4 sequence (P52566 whole entry, species assumed): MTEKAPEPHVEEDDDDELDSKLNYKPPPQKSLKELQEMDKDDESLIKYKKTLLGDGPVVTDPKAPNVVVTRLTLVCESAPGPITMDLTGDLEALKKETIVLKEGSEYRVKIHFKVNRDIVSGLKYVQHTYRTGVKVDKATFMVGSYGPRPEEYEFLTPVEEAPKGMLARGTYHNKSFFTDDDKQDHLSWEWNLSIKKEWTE
T6 sequence (Q99PT1 2-204): as the sequence (P52565 2-204) above, with V70I, G73R, S80T, V161M, S175N, D200E counted along it
T1 sequence (O43924 whole entry): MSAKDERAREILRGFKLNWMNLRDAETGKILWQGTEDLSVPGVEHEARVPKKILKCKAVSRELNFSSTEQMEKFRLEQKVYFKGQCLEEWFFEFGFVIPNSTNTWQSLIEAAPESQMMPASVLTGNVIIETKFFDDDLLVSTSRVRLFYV

- Kd [2]: 11.5 µM
- Kd [3]: 8.51 µM
- Kd [4]: 9.08 µM
- Kd [5]: 3.09 µM
- Kd [6]: 3.1 to 8.5 µM
Compound: COC(=O)C1(C(CC(=O)c2ccccc2)c2ccc(C(=O)NCCOCCOCCNC(=O)CCc3ccc4n3[B-](F)(F)[N+]3=C(c5ccc[nH]5)C=CC3=C4)cc2)N=C(c2ccc(Br)cc2)C2C(=O)N(C)C(=O)C21 (centres unmarked) [compound 10]
- Binding of probe to PDEδ (in words) [1]: binds to PDEδ only at higher concentrations

- Ratio, ATPase inhibitor, mitochondrial (Atpif1) [7, 10]: 4
- Ratio, Guanine nucleotide-binding protein subunit beta-2-like 1 (Gnb2l1) [7, 10]: 6
- Ratio, RHO GDP-dissociation inhibitor 1 (Arhgdia) [8]: 33
Compound: COC(=O)C1(C(CC(=O)c2ccccc2)c2ccc(C(=O)NCCOCCOCCN)cc2)N=C(c2ccc(Br)cc2)C2C(=O)N(C)C(=O)C21 (centres unmarked) [compound 8]
- Ratio, 60S ribosomal protein L32 (Rpl32) [7, 10]: 9
- Ratio, Filamin-B (Flnb) [7, 10]: 36
- Ratio, Filamin-C (Flnc) [7, 10]: 27
- Ratio, Hsc70-interacting protein (St13) [7, 10]: 4
- Ratio, Ribosome-recycling factor, mitochondrial (Mrrf) [7, 10]: 3
- Ratio, Tropomyosin alpha-4 chain (Tpm4) [7, 10]: 4
- Enrichment of proteins by probe, immunoblotting after pulldown (in words) ([7]; probe 8 compared with control probe 9, NIH/3T3 lysates): selective enrichment of RHOGDI1

Compound: CS(=O)(=O)c1ccc(C(=O)Nc2ccc(Cl)c(-c3ccccn3)c2)c(Cl)c1 [Vismodegib]
- Potency in osteogenesis in presence of 0.1 μM vs 1 μM SAG (in words) [9]: decreased potency

Reference: paper PMC9313812, “The Pseudo‐Natural Product Rhonin Targets RHOGDI” (Angewandte Chemie (International Ed. in English), 2022)
